The record followed here is EP0110955B1, “BRAIN-SPECIFIC DRUG DELIVERY” (UNIVERSITY OF FLORIDA, priority 1982, dated 1983).

Experiment [1] deals with brain-dopamine concentrations. As to the kind of experiment: Changes in brain-dopamine concentrations after intrajugular administration of 5c. It is filed as in vivo. As to conditions: 5c administered intrajugularly, some of the rats, others practically none. The method, then: To determine whether dopamine itself was finally released in the brain upon completion of the aforesaid complex delivery process, 5c was administered intrajugularly and changes in brain-dopamine concentrations following that administration were studied. […] It is known that dopamine and its agonists decrease prolactin secretion following their binding to stereospecific receptors located on lactophors in the anterior pituitary (AP) gland [G.P. Mueller, J.W. Simpkins, J. Meites and K.E. Moore, Neuroendocrinology, 20, 121 (1976); W. Wuttke, E. Cassell and J Meites, Endocrinology, 88, 737 (1971); J.A. Clemens, E.B. Smalstig and C.J. Shaar, Acta Endocrinol., 79, 230 (1975)]. This effect is dose- dependent and it can also be observed in vitro, incubating anterior pituitaries with dopamine or its agonists [R.M. MacLeod Ed. L. Martini and W.F. Ganong, Raven Press].

The test system of the next experiment is serum prolactin. The experiment can be described thus: In vivo effect on pituitary prolactin secretion (17-β-estradiol primed male rats). As to conditions: Intravenous administration, 1 mg/kg dose level. An excerpt: Adult male rats (Charles Rivers, CD-1) weighing 200 to 225 g were provided food and water ad libitum for at least one week period to experimentation. To elevate serum prolactin levels, each rat received a single s.c. implant of a Silastic tube (1.57 mm interior diameter, 5 mm x 3.15 mm overall size) packed with crystalline 17-,8-estradiol. Two days later the rats were lightly anesthetized with ether and a small incision was made over the right jugular vein for intravenous (LV.) administration of the test drugs. Compound 6a was injected at a dose of 1 mg/kg body weight/ml saline and groups of six rats were decapitated at 15, 30, 60 and 120 min later to collect blood samples. Control rats (time 0) received an I.V. injection of the saline vehicle and were decapitated 30 min later. Compound 5c was dissolved in 10% ethanol in saline and was injected IV. Rats were decapitated at 15, 30 and 120 min later. Control (time 0) animals received the 10% ethanol vehicle and were sampled 30 min later.
Trunk blood was collected, allowed to clot for 2h and the serum was separated and stored at -20 ° C for subsequent assay for prolactin concentrations. Each serum sample was assayed in duplicate by the doubleantibody radioimmunoassay procedure described by the National Pituitary Agency Hormone Distribution Program. Serum prolactin concentrations are expressed in terms of the PRL-RP-2 reference preparation provided. The intraassay coefficient of variation for 10 replicate samples of pooled serum obtained from male rats was 13.8%.
The effects of compounds 5c and 6a on serum prolactin concentrations were evaluated by one-way analysis of variance and Student-Newman Keuls tests. A probability level of less than 0.05 was selected for significance. See FIGURE 7 and the discussion thereof hereinabove.

Consider `CN1C=CCC(C(=O)NCCc2ccc(OC(=O)C(C)(C)C)c(OC(=O)C(C)(C)C)c2)=C1` [5c, 1-Methyl-3-(N-[β-(3,4-dipivalyloxyphenyl)-ethyl]}carbamoyl-1,4-dihydropyridine], for which the “increase in the dopamine concentrations” value in experiment [1] was “up to threefold increase”. In the experiment with serum prolactin, the “time through which the reduction of serum prolactin was maintained” value was ≥ 120 min. The “decrease in serum prolactin concentrations” value in the experiment with serum prolactin (male rats exposed to 17-β-estradiol) was found to be 79%.
